The values that follow come from article PMC3527734, “Peripheral injections of melanin-concentrating hormone receptor 1 antagonist S38151 decrease food intake and body weight in rodent obesity models” (Frontiers in Endocrinology, 2012).

Molecules are shown by their SMILES. Where a SMILES comes first, the peptide text is derived from it.

The assay has as its system ob/ob mice. Kind of assay: daily i.p. S38151 in ob/ob mice. Format: in vivo, mouse. On the procedure: In these studies, 13-week-old female C57BL/6J, ob/ob, and MCH1-KO mice were used. The mice were maintained on a 12-h light/dark cycle (lights on at 07:30 and off at 19:30) at 22 ± 3°C, and supplied with food pellets (6 mm diameter A03, UAR Laboratory chow, Epinay Villemuisson France) and tap water ad libitum. To induce obesity in C57BL/6J (creating diet-induced obese, or DIO, mice), mice were fed a high-fat diet (60 kcal% fat, 20 kcal% protein, 20 kcal% carbohydrate, ref D12492 from Research Diets, New Brunswick, NJ08901, USA) for 8 weeks starting at 4 weeks of age. In these experiments, DIO mice, ob/ob mice, and MCH^−/−1 mice were individually housed in a modular chamber that was placed on an activity platform to concurrently measure the food intake, water intake, and activity of the mice (ADDENFI, Les Cordeliers, Paris, France). For at least 2 weeks before experimentation, mice were habituated to a diet of 6 mm diameter food pellets of the following composition: 67.5% food flour, 26.5% sucrose, 5% gum tragacanth, 1.25% magnesium stearate (A03 UAR, Orge, France), and to i.p. injection. After this habituation period, food intake, drink intake, and body weight were measured for 3 consecutive days. The mice were randomized into three groups based on their food and water intake over the three preceding 24-h periods, and on their body weight. Next, the quantity of food eaten over each 24-h period during the 5 days of i.p. treatment with S38151 [10 and 30 mg/kg/day (7 and 20 μmol/kg/day)] or vehicle was determined and corrected for spillage.
Figure 8 The effects of repeated daily S38151 injection on food and water intake, body weight, and motility in ob/ob mice. Genetically modified ob/ob mice were administered S38151 (10 and 30 mg/kg, i.p.) or vehicle (normal saline i.p.) for 6 consecutive days. Results are expressed as mean ± SEM (n = 8 mice per group). White squares for controls, dark squares for 10 mg/kg, and dark triangles for 30 mg/kg.

In the case of `CSCC[C@@H]1NC(=O)[C@@H](NC(=O)c2ccc(NC(=N)N)cc2)CSSC[C@@H](C(=O)N[C@@H](Cc2c[nH]c3ccccc23)C(=O)O)NC(=O)[C@@H]2CCCN2C(=O)[C@H](CCCNC(=N)N)NC(=O)[C@H](Cc2ccc(O)cc2)NC(=O)[C@H](C(C)C)NC(=O)[C@H](CCCNC(=N)N)NC(=O)[C@H](CC(C)C)NC1=O` [S38151, p-guanidinobenzoyl-(Des-Gly10)-MCH (7–17)] (HELM PEPTIDE1{[N=C(N)Nc1ccc(C(=O)[*:2])cc1].C.M.L.R.V.Y.R.P.C.W}$PEPTIDE1,PEPTIDE1,2:R3-10:R3$$$V2.0; C-terminus assumed), for the setting “S38151 30 mg/kg i.p., day 6, data not shown”, the glycemia and insulinemia entry was “significant reductions”. Further, where the note is “S38151 10 and 30 mg/kg i.p. daily for 6 days, 30 mg/kg significant at days 1, 4, 5, 6”, the body weight entry was “dose-dependent reduction”. Moreover, the water intake result (S38151 10 and 30 mg/kg i.p. daily for 6 days, same profile as food intake) was “did not reach statistical significance”. In addition, for the setting “S38151 10 and 30 mg/kg i.p. daily for 6 days, significant from day 3 only at 30 mg/kg, n = 8”, the food intake entry was “dose-dependent inhibition”.
